Experimental data as given in patent publication US7501430B2 (ArQule, Inc., priority 2006, dated 2009).
Like-named read-outs stand apart in the source and are kept apart here.

Target: T1, mutant B-RAF (Homo sapiens, UniProt P15056, V600E)
T1 construct: purchased Upstate (Charlottesville, Va.)
Test: RAF biochemical assay (MEK-1 phosphorylation, anti-phospho MEK1/2 detection)
Conditions: for inhibition at 10 µM: read-out: Mutant B-RAF % inhibition
Method: Materials: The RAF kinases and the anti-phospho MEK1/2 antibody were from Upstate (Charlottesville, Va.). The RAF substrate used was full length N-terminal GST-MEK-1, which was expressed in E. coli and purified in-house by HPLC. All proteins were aliquoted and stored at −80° C.
Compounds were serially diluted in assay buffer containing 1% DMSO and 20 μL of test compound at a concentration 3-fold more than the final concentration, and were added to a polypropylene V-well reaction plate. Vehicle control wells received buffer only with DMSO at equivalent concentrations to the test wells. […] These reaction plates were incubated at room temperature for 30 minutes. Capture of MEK-1 was initiated by transferring 50 μl of the reaction mixture to a Nunc Maxisorp™ microplate that is designed for non-specific protein capture. After 30 minute capture of MEK-1 at room temperature, this plate was washed with TBST (6×200 μL/well) to fully terminate the reaction. The plate was then blocked for 1 hour by the addition of 100 μl/well of Superblock™ in phosphate buffered saline (PBS) blocking reagent. Plate was again washed with TBST (6 times with 200 μL/well), followed by the addition of 70 μL/well of Upstate anti-phospho MEK 1/2 diluted 1:1000 in Pierce Superblock (PBS). After a 60 minute incubation, this plate was washed with TBST (6 times with 200 μL/well), and 70 μL of the secondary antibody (Pierce Alkaline Phosphatase tagged goat anti-rabbit) prepared at 1:4000 in Superblock, were added. After a 45 minute incubation at room temperature, the wells of the microplate were washed with TBST (6 times with 200 μL/well), and thereafter 100 μl/well of Attophos™ fluorescent alkaline phosphatase substrate was added according to the manufacturer's instructions (JBL Scientific).

T1 sequence (P15056 whole entry V600E): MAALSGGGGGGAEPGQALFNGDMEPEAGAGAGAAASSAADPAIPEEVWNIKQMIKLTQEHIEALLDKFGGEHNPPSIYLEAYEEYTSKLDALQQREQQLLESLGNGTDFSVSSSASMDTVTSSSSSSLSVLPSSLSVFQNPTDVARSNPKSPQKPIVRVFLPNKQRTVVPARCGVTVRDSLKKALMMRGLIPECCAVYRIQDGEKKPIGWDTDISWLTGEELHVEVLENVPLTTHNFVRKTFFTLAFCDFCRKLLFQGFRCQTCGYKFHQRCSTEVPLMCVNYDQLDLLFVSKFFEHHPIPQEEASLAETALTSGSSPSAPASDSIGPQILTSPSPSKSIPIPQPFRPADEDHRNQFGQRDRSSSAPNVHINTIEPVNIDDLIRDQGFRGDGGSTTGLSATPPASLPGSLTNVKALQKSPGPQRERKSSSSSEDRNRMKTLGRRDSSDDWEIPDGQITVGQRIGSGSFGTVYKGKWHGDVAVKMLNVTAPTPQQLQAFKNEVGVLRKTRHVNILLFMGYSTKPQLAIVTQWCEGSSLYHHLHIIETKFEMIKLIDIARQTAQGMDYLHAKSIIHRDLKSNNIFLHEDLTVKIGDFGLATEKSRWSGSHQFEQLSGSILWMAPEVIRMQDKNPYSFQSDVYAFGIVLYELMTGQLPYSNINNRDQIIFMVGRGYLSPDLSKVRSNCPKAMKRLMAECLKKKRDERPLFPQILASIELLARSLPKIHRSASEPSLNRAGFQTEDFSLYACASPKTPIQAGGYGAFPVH

| Structure (SMILES) | inhibition at 10 µM (@ 10 uM) | further results |
| --- | --- | --- |
| CC(C)c1ccc(S(=O)(=O)N2CCC[C@@H](Nc3nccc(-c4c(-c5ccc(F)cc5)nc5occn45)n3)C2)cc1 [Example 48, 4-[6-(4-fluorophenyl)imi-dazo[2,1-b][1,3]oxazol-5-yl]-N-{(3R)-1-[(4-isopropyl-phenyl)sulfonyl]piperidin-3-yl}pyrimidin-2-amine] | – | IC50: 3020 nM |
| O=S(=O)(c1ccc(OC(F)(F)F)cc1)N1CCC[C@@H](Nc2nccc(-c3c(-c4ccc(F)cc4)nc4occn34)n2)C1 [Example 49, 4-[6-(4-fluorophenyl)imi-dazo[2,1-b][1,3]oxazol-5-yl]-N-((3R)-1-{(4-(trifluoro-methoxy)phenyl]sulfonyl}piperidin-3-yl)pyrimidin-2-amine] | – | inhibition at 10 µM: 32% |
| O=S(=O)(c1cccc(Cl)c1)N1CCC[C@@H](Nc2nccc(-c3c(-c4ccc(F)cc4)nc4occn34)n2)C1 [Example 50, N-{(3R)-1-[(3-chlorophenyl)sulfonyl]piper-idin-3-yl}-4-[6-(4-fluorophenyl)imidazo[2,1-b][1,3]oxazol-5-yl]pyrimidin-2-amine] | 35% | – |
| O=S(=O)(c1cc(Cl)cc(Cl)c1)N1CCC[C@@H](Nc2nccc(-c3c(-c4ccc(F)cc4)nc4occn34)n2)C1 [Example 51, N-{(3R)-1-[(3,5-dichlorophenyl)sulfonyl]pip-eridin-3-yl}-4-[6-(4-fluorophenyl)imidazo[2,1-b][1,3]oxazol-5-yl]pyrimidin-2-amine] | 25% | – |
| O=S(=O)(c1cccc(F)c1)N1CCC[C@@H](Nc2nccc(-c3c(-c4ccc(F)cc4)nc4occn34)n2)C1 [Example 52, 4-[6-(4-fluorophenyl)imi-dazo[2,1-b][1,3]oxazol-5-yl]-N-{(3R)-1-[(3-fluorophenyl)sulfonyl]piperidin-3-yl}pyr-imidin-2-amine] | – | inhibition at 10 µM: 55% |
| Cc1ccccc1S(=O)(=O)N1CCC[C@@H](Nc2nccc(-c3c(-c4ccc(F)cc4)nc4occn34)n2)C1 [Example 53, 4-(6-(4-fluorophenyl)imi-dazo[2,1-b][1,3]oxazol-5-yl]-N-{(3R)-1-[(2-methylphenyl)sulfonyl]piperidin-3-yl}pyrimidin-2-amine] | – | inhibition at 10 µM: 42% |
| O=S(=O)(c1c(F)cccc1F)N1CCC[C@@H](Nc2nccc(-c3c(-c4ccc(F)cc4)nc4occn34)n2)C1 [Example 54, N-{(3R)-1-[(2,6-difluoro-phenyl)sulfonyl]piperidin-3-yl}-4-[6-(4-fluorophenyl)imidazo[2,1-b][1,3]oxazol-5-yl]pyrimidin-2-amine] | 47% | – |
| N#Cc1ccc(S(=O)(=O)N2CCC[C@@H](Nc3nccc(-c4c(-c5ccc(F)cc5)nc5occn45)n3)C2)cc1 [Example 55, 4-{[(3R)-3-({4-[6-(4-fluorophenyl)imidazo[2,1-b][1,3]oxazol-5-yl]pyrimidin-2-yl}amino)piperidin-1-yl]sulfonyl}benzonitrile] | – | IC50 (read-out: Mutant B-RAF IC50): 630 nM |
| O=S(=O)(c1cc(C(F)(F)F)cc(C(F)(F)F)c1)N1CCC[C@@H](Nc2nccc(-c3c(-c4ccc(F)cc4)nc4occn34)n2)C1 [Example 56, N-((3R)-1-{[3,5-bis(trifluoromethyl)phenyl]sulfonyl}piperidin-3-yl)-4-[6-(4-fluorophenyl)imidazo[2,1-b][1,3]oxazol-5-yl]pyrimidin-2-amine] | 57% | – |
| COc1cccc(S(=O)(=O)N2CCC[C@@H](Nc3nccc(-c4c(-c5ccc(F)cc5)nc5occn45)n3)C2)c1 [Example 57, 4-[6-(4-fluorophenyl)imi-dazo[2,1-b][1,3]oxazol-5-yl]-N-{(3R)-1-[(3-methoxy-phenyl)sulfonyl]piperidin-3-yl}pyrimidin-2-amine] | – | inhibition at 10 µM: 34% |
| O=S(=O)(c1ccc(C(F)(F)F)cc1)N1CCC[C@@H](Nc2nccc(-c3c(-c4ccc(F)cc4)nc4occn34)n2)C1 [Example 58, 4-[6-(4-fluorophenyl)imi-dazo[2,1-b][1,3]oxazol-5-yl]-N-((3R)-1-{[4-(trifluoro-methyl)phenyl]sulfonyl}piperidin-3-yl)pyrimidin-2-amine] | – | IC50: 403 nM |
| O=C(O)c1ccc(S(=O)(=O)N2CCC[C@@H](Nc3nccc(-c4c(-c5ccc(F)cc5)nc5occn45)n3)C2)cc1 [Example 59, 4-{[(3R)-3-({4-[6-(4-fluorophenyl)imidazo[2,1-b][1,3]oxazol-5-yl]pyrimidin-2-yl}amino)piperidin-1-yl]sulfonyl}benzoic acid] | – | IC50 (read-out: Mutant B-RAF IC50): 576 nM |
| O=S(=O)(c1ccc(Oc2ccccc2)cc1)N1CCC[C@@H](Nc2nccc(-c3c(-c4ccc(F)cc4)nc4occn34)n2)C1 [Example 60, 4-[6-(4-fluorophenyl)imi-dazo[2,1-b][1,3]oxazol-5-yl]-N-{(3R)-1-[(4-phenoxy-phenyl)sulfonyl]piperidin-3-yl}pyrimidin-2-amine] | – | inhibition at 10 µM: 15% |
| COc1ccc(Cl)cc1S(=O)(=O)N1CCC[C@@H](Nc2nccc(-c3c(-c4ccc(F)cc4)nc4occn34)n2)C1 [Example 61, N-{(3R)-1-[(5-chloro-2-methoxyphenyl)sulfonyl]piperidin-3-yl}-4-[6-(4-fluorophenyl)imidazo[2,1-b][1,3]oxazol-5-yl]pyrimidin-2-amine] | 37% | – |
| Fc1ccc(-c2nc3sccn3c2-c2ccnc(N[C@@H]3CCCNC3)n2)cc1 [Example 62] | – | inhibition at 10 µM: 45% |
| O=C(O)CCc1ccc(S(=O)(=O)N2CCC[C@@H](Nc3nccc(-c4c(-c5ccc(F)cc5)nc5occn45)n3)C2)cc1 [Example 63, 3-(4-{[(3R)-3-({4-[6-(4-fluorophenyl)imidazo[2,1-b][1,3]oxazol-5-yl]pyrimidin-2-yl}amino)piperidin-1-yl]sulfonyl}phenyl)propanoicacid] | – | IC50 (read-out: Mutant B-RAF IC50): 441 nM |
| CC(=O)Nc1nc(C)c(S(=O)(=O)N2CCC[C@@H](Nc3nccc(-c4c(-c5ccc(F)cc5)nc5occn45)n3)C2)s1 [Example 64, N-(5-{[(3R)-3-({4-[6-(4-fluorophenyl)imidazo[2,1-b][1,3]oxazol-5-yl]pyrimidin-2-yl}amino)piperidin-1-yl]sulfonyl}-4-methyl-1,3-thiazol-2-yl)acetamide] | 58% | – |
| Cc1nc(C)c(S(=O)(=O)N2CCC[C@@H](Nc3nccc(-c4c(-c5ccc(F)cc5)nc5occn45)n3)C2)s1 [Example 65, N-{(3R)-1-[(2,4-dimethyl-1,3-thiazol-5-yl)sulfonyl]piper-idin-3-yl}-4-[6-(4-fluorophenyl)imidazo[2,1-b][1,3]oxazol-5-yl]pyrimidin-2-amine] | 42% | – |
| Cc1nc(S(=O)(=O)N2CCC[C@@H](Nc3nccc(-c4c(-c5ccc(F)cc5)nc5occn45)n3)C2)cn1C [Example 66, N-{(3R)-1-[(1,2-dimethyl-1H-imidazol-4-yl)sulfonyl]piper-idin-3-yl}-4-[6-(4-fluorophenyl)imidazo[2,1-b][1,3]oxazol-5-yl]pyrimidin-2-amine] | 70% | – |
| Cc1cc(NC(=O)N2CCC[C@@H](Nc3nccc(-c4c(-c5ccc(F)cc5)nc5occn45)n3)C2)c(C(F)(F)F)o1 [Example 67, (3R)-3-({4-[6-(4-fluorophenyl)imidazo[2,1-b][1,3]oxazol-5-yl]pyrimidin-2-yl}amino)-N-[5-methyl-2-(trifluoromethyl)-3-furyl]piperidine-1-carboxamide] | 29% | – |
| O=C(NCC1CCCCC1)N1CCC[C@@H](Nc2nccc(-c3c(-c4ccc(F)cc4)nc4occn34)n2)C1 [Example 68, (3R)-N-(cyclohexylmethyl)-3-({4-[6-(4-fluorophenyl)imi-dazo[2,1-b][1,3]oxazol-5-yl]pyrimidin-2-yl}amino)piperidine-1-carboxamide] | – | inhibition at 10 µM: 42% |
| COc1ccc(NC(=O)N2CCC[C@@H](Nc3nccc(-c4c(-c5ccc(F)cc5)nc5occn45)n3)C2)c(OC)c1 [Example 69, (3R)-N-(2,4-dimethoxy-phenyl)-3-({4-[6-(4-fluorophenyl)imidazo[2,1-b][1,3]oxazol-5-yl]pyrimidin-2-yl}amino)piperidine-1-carboxamide] | 42% | – |
| COc1ccc(Cl)cc1NC(=O)N1CCC[C@@H](Nc2nccc(-c3c(-c4ccc(F)cc4)nc4occn34)n2)C1 [Example 70, (3R)-N-(5-chloro-2-methoxyphenyl)-3-({4-[6-(4-fluorophenyl)imidazo[2,1-b][1,3]oxazol-5-yl]pyrimidin-2-yl}amino)piperidine-1-carboxamide] | 49% | – |
| O=C(NCCc1ccc(F)cc1)N1CCC[C@@H](Nc2nccc(-c3c(-c4ccc(F)cc4)nc4occn34)n2)C1 [Example 71, (3R)-N-[2-(4-fluorophenyl)ethyl]-3-({4-[6-(4-fluorophenyl)imidazo[2,1-b][1,3]oxazol-5-yl]pyrimidin-2-yl}amino)piperidine-1-carboxamide] | 16% | – |
| C[C@@H](NC(=O)N1CCC[C@@H](Nc2nccc(-c3c(-c4ccc(F)cc4)nc4occn34)n2)C1)c1ccccc1 [Example 72, (3R)-3-({4-[6-(4-fluorophenyl)imidazo[2,1-b][1,3]oxazol-5-yl]pyrimidin-2-yl}amino)-N-[(1R)-1-phenylethyl]piperidine-1-carboxamide] | 53% | – |
